Assay: Inhibition of GSK3beta phosphorylation in human BT474 cells

| SMILES | IC50 |
| --- | --- |
| Cc1occc1-c1ncc(OC[C@@H](N)Cc2c[nH]c3ccccc23)cc1-c1cnc2[nH]nc(C)c2n1 [(2S)-1-(1H-indol-3-yl)-3-(5-(3-methyl-1H-pyrazolo[4,3-b]pyrazin-5-yl)-6-(2-methylfuran-3-yl)pyridin-3-yloxy)propan-2-amine] | 210 nM |
| Cc1occc1-c1nc(N)c(OC[C@@H](N)Cc2c(C(N)=O)[nH]c3ccccc23)cc1-c1cnc2[nH]nc(C)c2n1 [3-((2S)-2-amino-3-(2-amino-5-(3-methyl-1H-pyrazolo[4,3-b]pyrazin-5-yl)-6-(2-methylfuran-3-yl)pyridin-3-yloxy)propyl)-1H-indole-2-carboxamide] | > 30000 nM |
| Cc1occc1-c1nc(N)c(OC[C@@H](N)Cc2c[nH]c3ccccc23)cc1-c1ccc2[nH]nc(C)c2c1 [3-((S)-2-amino-3-(1H-indol-3-yl)propoxy)-5-(3-methyl-1H-indazol-5-yl)-6-(2-methylfuran-3-yl)pyridin-2-amine] | 220 nM |
| Cc1nc(-c2ccoc2)c(-c2cnc3[nH]nc(C)c3n2)cc1OC[C@@H](N)Cc1c[nH]c2ccccc12 [(S)-1-(6-(furan-3-yl)-2-methyl-5-(3-methyl-1H-pyrazolo[4,3-b]pyrazin-5-yl)pyridin-3-yloxy)-3-(1H-indol-3-yl)propan-2-amine] | 280 nM |
| Cc1occc1-c1nc(N)c(OC[C@@H](N)Cc2c(C#N)[nH]c3ccccc23)cc1-c1cnc2[nH]nc(C)c2n1 [3-((2S)-2-amino-3-(2-amino-5-(3-methyl-1H-pyrazolo[4,3-b]pyrazin-5-yl)-6-(2-methylfuran-3-yl)pyridin-3-yloxy)propyl)-1H-indole-2-carbonitrile] | > 30000 nM |
| Cc1n[nH]c2ncc(-c3cc(OC[C@@H](N)Cc4c[nH]c5ccccc45)c(C#N)nc3-c3ccoc3)nc12 [(S)-3-(2-amino-3-(1H-indol-3-yl)propoxy)-6-(furan-3-yl)-5-(3-methyl-1H-pyrazolo[4,3-b]pyrazin-5-yl)picolinonitrile] | > 10000 nM |
| Cc1occc1-c1nc(N)c(OC[C@@H](N)Cc2ccccc2)cc1-c1cnc2[nH]nc(C)c2n1 [3-((S)-2-amino-3-phenylpropoxy)-5-(3-methyl-1H-pyrazolo[4,3-b]pyrazin-5-yl)-6-(2-methylfuran-3-yl)pyridin-2-amine] | 280 nM |
| Cc1occc1-c1nc(N)c(OC[C@@H](N)Cc2c(Cl)[nH]c3ccccc23)cc1-c1cnc2[nH]nc(C)c2n1 [3-((S)-2-amino-3-(2-chloro-1H-indol-3-yl)propoxy)-5-(3-methyl-1H-pyrazolo[4,3-b]pyrazin-5-yl)-6-(2-methylfuran-3-yl)pyridin-2-amine] | 300 nM |
| Cc1occc1-c1nc(N)c(OC[C@@H](N)Cc2c[nH]c3ccccc23)cc1-c1cc2c(C)n[nH]c2cn1 [3-((S)-2-amino-3-(1H-indol-3-yl)propoxy)-5-(3-methyl-1H-pyrazolo[3,4-c]pyridin-5-yl)-6-(2-methylfuran-3-yl)pyridin-2-amine] | 680 nM |
| Cc1occc1-c1nc(N)c(OC[C@@H](N)Cc2c[nH]c3ccccc23)cc1-c1cnc2[nH]nc(C)c2n1 [3-((S)-2-amino-3-(1H-indol-3-yl)propoxy)-5-(3-methyl-1H-pyrazolo[4,3-b]pyrazin-5-yl)-6-(2-methylfuran-3-yl)pyridin-2-amine] | 560 nM |
| CCNc1nc(-c2ccoc2)c(-c2cnc3[nH]nc(C)c3n2)cc1OC[C@@H](N)Cc1ccccc1 [(S)-3-(2-amino-3-phenylpropoxy)-N-ethyl-6-(furan-3-yl)-5-(3-methyl-1H-pyrazolo[4,3-b]pyrazin-5-yl)pyridin-2-amine] | > 10000 nM |

— BindingDB's records for doi:10.1016/j.bmcl.2009.11.061 (Glaxosmithkline, 2010)
